From ChEMBL document CHEMBL1131715 (Bioorg Med Chem Lett, 1999)

Experiment: Inhibitory activity against zinc-dependent Glutamate Carboxypeptidase G

Row | SMILES | Ki [nM]
1 | CCCCP(O)(=S)N[C@@H](CCC(=O)O)C(=O)O (some centres not stated) | 264
2 | O=C(O)CC[C@H](NP(O)(=S)c1ccccc1)C(=O)O (some centres not stated) | 3240
